Measurements from patent publication US20230285570A1, “THERAPEUTICALLY USEFUL CURE-PRO MOLECULES FOR E3 LIGASE MEDIATED DEGRADATION OF PROTEINS, AND METHODS OF MAKING AND USING THEM” (CORNELL UNIVERSITY, priority 2020, published 2023).
“Also recorded” adds a separate entry of the source.

Key:
Format in all cases: cell-based
BRD4 [1] = target: T1, BRD4 (Homo sapiens, UniProt O60885); experiment: CURE-PRO-mediated BRD4 degradation in HeLa cells, Western blot; set-up: endogenous in cells; host or cells: HeLa; conditions: 24 h
In short: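 HeLa cells (2.5×10^6) treated 24 h with DMSO-solubilized compounds, degrader pairs combined 1:1, at 1 nM-1 μM, 1-10 μM, 10 μM or 10 and 100 μM each depending on series. RIPA lysates (10-20 μg protein) run on SDS-PAGE and immunoblotted for BRD4 with ECL detection.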

MV-4-11 cells = experiment: CellTiter-Glo cell viability, MV-4-11 cells; conditions: for loss of cellular viability (toxicity) versus monomers alone: cotreated 1:1 with each of CRBN ligands 8046, 8047 and 8066, MV-4-11, 72 h, 10 nM-100 μM
Method: CellTiter-Glo® 2.0 Cell Viability Assay (Promega) was carried out following the manufacturer's recommendations. Cells were seeded at a density of 1000 cells/well in a white 96 well plates (Corning, #3917) in a total volume of 100 μl with respective monomers, combinations of BRD ligands together with E3 ligase ligands or vehicle control treatment. After a 72 h incubation, 100 ul of the CellTiter-Glo® substrate was added per well and luminescence was read on a Spectramax M5 (Molecular Devices). Dose-response curves were generated using Graphpad Prism software.
MV-4-11 cells (5×10^4) were treated for 24 hours with the sample compounds solubilized in DMSO. The compounds were added at 1 nM-100 μM each. Cellular viability was determined using the CellTiter-Glo® Luminescent Cell Viability Assay (Promega) described above. FIGS. 19-22 depict the CURE-PRO-mediated loss of cellular viability for BRD monomers (JQ1 derivatives comprising of catechol linkers), and CRBN ligand, 8049 (pomalidomide derivatives comprising boronic acid linkers) combined in a 1:1 ratio.
MV-4-11 cells (1×10^4) were treated for 72 hours with the compounds solubilized in DMSO. Compounds were added at 10 nM-100 μM each. Cellular viability was determined using the CellTiter-Glo® Luminescent Cell Viability Assay (Promega) described above. FIGS. 47-54 depict the CURE-PRO-mediated loss of cellular viability for BRD monomers (JQ1 derivatives comprising of boronic acid linkers), and CRBN ligands, 8046, 8047 and 8066 (pomalidomide derivatives comprising diol linkers) combined in a 1:1 ratio.

BRD4 [2] = target: T1, BRD4; experiment: Summary of BRD4 degradation by CURE-PRO pairs, estimated from Western Blot or WES; set-up: endogenous in cells; conditions: for Degradation of BRD4, combination with CRBN ligand 8046: Table 1, aryl-boronic acid BRD4 ligand + 8046; for Degradation of BRD4, combination with CRBN ligand 8066: Table 1, aryl-boronic acid BRD4 ligand + 8066
In short: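 Degradation read-out from immunoblot with ECL, or WES capillary electrophoresis with HRP detection, of RIPA lysates. Cells (Namalwa, Ramos, HeLa, MCF7, HT29 or HCT116) were exposed to DMSO-solubilized compounds for 24 h; a check mark marks 30% to 70% or higher degradation.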

BRD4 [3] = target: T1, BRD4; experiment: CURE-PRO-mediated BRD4 degradation in MCF7 cells, WES (ProteinSimple); set-up: endogenous in cells
Method: WES Simple analysis was performed on WES system (ProteinSimple-Biotechne) according to the manufacturer's instructions. Total protein concentrations of cell lysates were determined by the Pierce BCA kit (Thermo Fisher). 3 μL of 0.3 μg/μL of the protein lysate was loaded onto a 12- to 230-kDa WES assay plate (ProteinSimple) where 300 nL sample was withdrawn through a capillary, subjected to electrophoretic separation of proteins by size, and followed by the simultaneous, HRP-based detection of proteins using the Anti-Rabbit Detection Module (Proteinsimple: #DM-001). The electropherograms were checked then the automatic peak detection was manually corrected if it was required.
MCF7 cells (3×10^6) were treated for 4-24 hours continually (FIG. 72), or treated for 4 h, washed and incubated for a further 4-24 h with the compounds solubilized in DMSO. Compounds were added at 10 μM each. Cells were washed, lysed, and clarified by centrifugation. The total protein concentration was quantified by the BCA method (ThermoFisher Sciences). Standardized protein samples were electrophoresed and imaged as described in the WES Proteinsimple section above. FIG. 69 depicts the CURE-PRO-mediated BRD4 degradation for the BRD-E50 monomer, and VHL ligand, 8305.
MCF7 cells (3×10^6) were treated for 24 hours with the compounds solubilized in DMSO. CURE-PRO monomers were added at 10 μM each and the proteasomal inhibitors at 1 μM. Standardized protein samples were electrophoresed and imaged as described in the WES Proteinsimple section above. FIGS. 73 and 75 depicts the dependence of the proteasome for CURE-PRO-mediated BRD4 degradation.
MCF7 cells (3×10^6) were treated for 24 hours with the compounds solubilized in DMSO. CURE-PRO monomers were added at 10 μM. FIG. 74 depicts the CURE-PRO-mediated BRD4 degradation for the BRD-E50 monomer, and VHL ligand, 8305 combined in a 1:1 ratio after 24 h.

[4] = co-treated 1:1 with CRBN ligand 8046, HeLa, 10 μM each
[5] = co-treated 1:1 with CRBN ligand 8047, HeLa, 10 μM each
[6] = co-treated 1:1 with CRBN ligand 8066, HeLa, 10 μM each

| Structure (SMILES) | BRD4 degradation (BRD4 [1]; [4]) | BRD4 degradation (BRD4 [1]; [5]) | loss of cellular viability (toxicity) versus monomers alone (MV-4-11 cells) | Degradation of BRD4, combination with CRBN ligand 8046 (BRD4 [2]) | BRD4 degradation (BRD4 [1]; [6]) | Degradation of BRD4, combination with CRBN ligand 8066 (BRD4 [2]) | also measured |
| --- | --- | --- | --- | --- | --- | --- | --- |
| CCNC(=O)C[C@@H]1N=C(c2ccc(Cl)cc2)c2cc(Sc3cccc(B(O)O)c3)ccc2-n2c(C)nnc21 [BRD-E76] | causes degradation of BRD4 | causes degradation of BRD4 | reduced viability; also recorded: increased toxicity | √ (A black check mark indicates efficacy of 30% to 70% or higher protein degradation) |  |  |  |
| COc1ccc2c(c1)C(c1ccc(Cl)cc1)=N[C@@H](CC(=O)NCCNC(=O)/C=C/c1ccc(B(O)O)cc1)c1nnc(C)n1-2 [BRD-E29, (4-((E)-3-((2-(2-((4S)-6-(4-chlorophenyl)-8-methoxy-1-methyl-4H-benzo[f][1,2,4]triazolo[4,3-a][1,4]diazepin-4-yl)acetamido)ethyl)amino)-3-oxoprop-1-en-1-yl)phenyl)boronic acid] | causes degradation of BRD4; also recorded: Degradation is noted | causes degradation of BRD4; also recorded: Degradation is noted | reduced viability; also recorded: increased toxicity | √ (A black check mark indicates efficacy of 30% to 70% or higher protein degradation) | causes degradation of BRD4; also recorded: Degradation is noted | √ (A black check mark indicates efficacy of 30% to 70% or higher protein degradation) | Degradation of BRD4, combination with CRBN ligand 8047 (BRD4 [2]; Table 1, aryl-boronic acid BRD4 ligand + 8047): √ (A black check mark indicates efficacy of 30% to 70% or higher protein degradation) |
| CCNC(=O)C[C@@H]1N=C(c2ccc(Cl)cc2)c2cc(Sc3ccc(B(O)O)cc3)ccc2-n2c(C)nnc21 [BRD-E75, (4-(((4S)-6-(4-chlorophenyl)-4-(2-(ethylamino)-2-oxoethyl)-1-methyl-4H-benzo[f][1,2,4]triazolo[4,3-a][1,4]diazepin-8-yl)thio)phenyl)boronic acid] |  |  | reduced viability; also recorded: increased toxicity |  |  |  | Degradation of BRD4, combination with MDM2 ligand 8314 (BRD4 [2]; Table 2, aryl-boronic acid BRD4 ligand + 8314): √ (A black check mark indicates efficacy of 30% to 70% or higher protein degradation) |
| COc1ccc2c(c1)C(c1ccc(Cl)cc1)=N[C@@H](CC(=O)NCCc1ccc(O)c(O)c1)c1nnc(C)n1-2 [BRD-N10, (S)-2-(6-(4-chlorophenyl)-8-methoxy-1-methyl-4H-benzo[f][1,2,4]triazolo[4,3-a][1,4]diazepin-4-yl)-N-(3,4-dihydroxyphenethyl)acetamide] |  |  |  |  |  |  | BRD4 degradation (BRD4 [1]; BRD4 monomer alone, HeLa, 1-10 μM): there is no degradation of BRD4; BRD4 degradation (BRD4 [1]; co-treated 1:1 with CRBN ligand 8048, HeLa, 1-10 μM each): causes degradation of BRD4; also recorded: capable of degrading BRD4; loss of cellular viability (toxicity) (MV-4-11 cells; co-dosed 1:1 with CRBN ligand 8049, MV-4-11, 24 h, 1 nM-100 μM each): concentration-dependent loss in cellular viability; also recorded: increased toxicity; Degradation of BRD4, combination with CRBN ligand 8048 (BRD4 [2]; Table 4, aromatic 1,2-diol BRD4 ligand + 8048): √ (A black check mark indicates efficacy of 30% to 70% or higher protein degradation); Degradation of BRD4, combination with CRBN ligand 8049 (BRD4 [2]; Table 4, aromatic 1,2-diol BRD4 ligand + 8049): √ (A black check mark indicates efficacy of 30% to 70% or higher protein degradation); Degradation of BRD4, combination with MDM2 ligand 8310 (BRD4 [2]; Table 5, aromatic 1,2-diol BRD4 ligand + 8310): √ (A black check mark indicates efficacy of 30% to 70% or higher protein degradation) |
| COc1ccc2c(c1)C(c1ccc(Cl)cc1)=N[C@@H](CC(=O)NCCOCCOCCNC(=O)c1cccc(B(O)O)c1)c1nnc(C)n1-2 [BRD-E46] | causes degradation of BRD4; also recorded: Degradation is noted |  | reduced viability; also recorded: increased toxicity | √ (A black check mark indicates efficacy of 30% to 70% or higher protein degradation) | causes degradation of BRD4; also recorded: Degradation is noted | √ (A black check mark indicates efficacy of 30% to 70% or higher protein degradation) |  |
| COc1ccc2c(c1)C(c1ccc(Cl)cc1)=N[C@@H](CC(=O)NCCNC(=O)c1cccc(B(O)O)c1)c1nnc(C)n1-2 [BRD-E2] |  |  |  |  |  |  | BRD4 degradation with proteasome inhibitors (BRD4 [3]; 1:1 with 8305 at 10 μM, pre-incubation with MG-132 and Carfilzomib 1 μM, MCF7): inhibited by the pre-incubation with MG-132 and Carfilzomib; also recorded: inhibited with the proteasome inhibitors, MG-132 and Carfilzomib; BRD4 degradation (BRD4 [3]; 1:1 with VHL ligand 8305, MCF7, 10 μM each, 4-24 h): caused BRD4 degradation; also recorded: marked BRD4 degradation; Degradation of BRD4, combination with VHL ligand 8305 (BRD4 [2]; Table 3, aryl-boronic acid BRD4 ligand + 8305): √ (A black check mark indicates efficacy of 30% to 70% or higher protein degradation) |
